Results on one compound are retold here after US12433870B2, “Supramolecular photoprotection of a photosensitizer” (Northwestern University, priority 2019, dated 2025).

Entries after “also recorded” stand apart in the source; their conditions may differ.

In data set [1] the test system is A2780 cells. Description: Intracellular ROS generation (DCFDA assay). Format: cell-based, human. Conditions: 10 μM/0.156 J cm^−2 light dose, compared with dark or untreated cells. The procedure: Intracellular ROS generation assay was performed using DCFDA Cellular ROS Detection Assay Kit (Abeam), according to the manufacturer's instructions. Briefly, A2780 cells (2.5×10^5 cells/mL, 100 μL) were seeded in each well of a black 96-well plate and incubated with PBS solution of ExBox^4+⊃DPP for 12 h. After incubation, cells were washed with PBS and incubated with 2′,7′-dichlorofluorescin diacetate (DCFDA) (20 μM) for 45 min in the dark. Then the cells were rinsed with PBS, irradiated and fluorescence was measured (λex=485 and λem=535 nm) using a microplate reader. Control experiments with PBS solution of ExBox^4+⊃DPP treated cells and untreated cells, both with and without irradiation were performed.

Data set [2] in a line: Solubility in water / PBS buffer. Type of data set: physicochemical. The conditions noted are these: H2O.
The nature of data set [3]: Detection of singlet oxygen (ADPA chemical method, methylene blue reference). Format: physicochemical. Conditions: H2O, 20 μM, 630 nm, 50 mW, 20 min. The procedure:
Singlet oxygen (^1O2) quantum-yield measurements were conducted by a chemical method. The disodium salt of 9.10-anthracenedipropionic acid (ADPA) was used as singlet oxygen detection reagent with methylene blue used as a reference (Φt=0.53). In this experiment, ADPA (0.1 μmol) was added to the H2O solution of ExBox^4+⊃DPP (20 μM) with a laser irradiation (630 nm, 50 mW) for 20 min, followed by quantification of ^1O2 by the absorbance intensity change (UV-3600 Shimadzu spectrophotometer) at 380 nm of ADPA. The calculation of ^1O2 quantum yield is based on the equality ΦΔ=(ΔAs/[…])Φr. ΔAs is the absorption change of detected photosensitizer, ΔAr is the absorption change of referenced photosensitizer and Φ^r is the quantum yield of singlet oxygen of referenced photosensitizer (methylene blue).
(§1) ADPA (0.1 μmol) was added to the H2O solution of DPPH2^+ (20 μM) with a laser irradiation (630 nm, 50 mW) for 20 min, followed by quantification of the ^1O2 by the absorbance intensity change (UV-3600 Shimadzu spectrophotometer) at 380 nm of ADPA. The calculation of the ^1O2 quantum yield is based on the equality ΦΔ=(ΔAs/ΔAr)Φr where ΔAs is the absorption change of detected photosensitizer, ΔAr is the absorption change of referenced photosensitizer and Φr is the quantum yield of singlet oxygen of referenced photosensitizer (methylene blue). Measured ^1O2 quantum yield of DPPH2^2+ is 0.38 in H2O.
as §1, with “acetone” for “H2O”, “DPP” for “DPPH2^+”, “DPP” for “DPPH2^2+”, “0.43” for “0.38”, “acetone.” for “H2O.”

Data set [4] concerns A2780 cells. Description: MTT assay, in vitro cytotoxicity in the dark. Format: cell-based, human. Conditions: 0.625-100 μM in PBS. The procedure: (§2) A2780 cells (human ovarian cancer cell line) and MCF-7 cells (human breast adenocarcinoma cell line) obtained from Sigma-Aldrich and American Type Culture Collection (ATCC, Rockville, MD, USA), respectively were utilized for cell culture experiments. These cells were cultured in Dulbecco's Modified Eagle's Medium (DMEM) supplemented with 10% fetal bovine serum (FBS), penicillin (100 IU/mL) and streptomycin (100 μg/mL) at 37° C. in the presence of air (95%) and CO2 (5%).
(§3) A2780 or MCF-7 cells (2×10^5 cells/mL, 100 μL) were seeded in each well of a black 96-well plate. Stock solution of ExBox^4+⊃DPP in PBS (1 mM, 10 μL) was added to each well to achieve working concentrations and incubated for 12 h. […] Following irradiation, cells were incubated overnight and then added with MTT (5 mg/mL in PBS, 10 μL). After 4 h incubation with MTT, media from each well was pipetted out, formazan crystals deposited on the plate were dissolved in 200 μL of Me2SO, and the absorbance of each well was measured using a microplate reader at 560 nm. All the samples were analyzed in quadruplicates.
(§4) The percentage cell viability was calculated using the following formula: % cell viability=(OD of treated sample/OD of untreated sample)*100.
For orientation: Tetrazolium assays rely on reduction of a dye to a coloured formazan, in cell work by metabolically active cells.

Another data set relates to MCF-7 cells. Description: MTT assay, in vitro cytotoxicity in the dark. Format: cell-based, human. Conditions: 0.625-100 μM in PBS. How it is done: as §2, §3, §4
The nature of data set [5]: pH-dependent release of DPP from the complex (fluorescence and transient absorption, pH 4.5). Type of data set: physicochemical. The text has this: At low pH, DPP can be protonated. Therefore, the electrostatic repulsion between the cationic DPP and the tetracationic host ExBox^4+ can trigger release of DPP in H2O. Indeed, when aqueanous solution of ExBox^4+⊃DPP is acidified with HCl (pH 4.5), protonated DPP was released in H2O leading to 17-fold increment of fluorescence signals (FIG. 4A). […] The residual population survived for several microseconds and has a transient absorption spectrum of ^3*DPP; the […] (FIGS. 4D-4E) approximates the decay of the long-lived triplet state in aerated, room temperature aqueous solution. […] We estimate this fraction to be approximately 30% at the ˜20 μM concentration of the transient absorption experiments.
The setup for transient absorption measurements has been described elsewhere.^3 Photoexcitation pulses at 414 nm were obtained through a beta barium borate (BBO) crystal doubling the fundamental, and the 575 nm pulses were generated with a laboratory-constructed optical parametric amplifier. The pulse power for photoexcitation was attenuated to ˜1 μJ/pulse, using neutral density filters. The pump polarization was randomized employing a commercial depolarizer (DPU-25-A, Thorlabs, Inc.) to eliminate any orientational dynamics contributions from the experiment. […]

Consider `C1=Cc2nc1cc1ccc([nH]1)c(-c1ccccc1)c1nc(cc3ccc([nH]3)c2-c2ccccc2)C=C1.c1cc2ccc1C[n+]1ccc(cc1)-c1ccc(cc1)-c1cc[n+](cc1)Cc1ccc(cc1)C[n+]1ccc(cc1)-c1ccc(cc1)-c1cc[n+](cc1)C2` [ExBox^4+⊃DPP], for which, in the data set with A2780 cells [1], the “increase in intracellular ROS” value is given as 20 fold. Besides, the “solubility in H2O” value in data set [2] is “soluble in H2O”. For the same compound, the “singlet oxygen generation upon photoexcitation” value in data set [3] was “did not generate any singlet oxygen; also recorded: ^1O2 was not generated”. Further, the “cell viability in the dark” value in the data set on A2780 cells [4] and with MCF-7 cells was above 95% each time. For the same compound, in data set [5] (aqueous solution acidified with HCl (pH 4.5) versus pH 7, λex=414 nm), the “increment of fluorescence signals on release of protonated DPP” value was 17 fold. Further, the “fraction of the complex population with DPP released (electron transfer turned off)” value in data set [5] (pH 4.5, ~20 μM, transient absorption) is on record as “approximately 30%”.
